Assay results reported in PubChem BioAssay AID248 (DTP/NCI, 2004).
Several values for one entry are separate records, joined by “and”; a condition that tells them apart may be missing. Equal values may be shown once. Toxic doses and inconclusive results are not listed. No stated cut-off is given here; in the data, active means T/C of 150% or more; inactive means T/C below 125%.

Test system: L1210 leukemia ip in BDF1 mice, survival T/C
Experiment: NCI In Vivo Anticancer Drug Screen. Data for tumor model L1210 Leukemia (intraperitoneal) in B6D2F1 (BDF1) mice
Conditions: endpoint: mean survival time, higher = longer survival
Summary of the method: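 Transplanted-tumor mice were given test agent; controls received vehicle only. Survival readings from the two groups were divided (treated over control).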

[1] = dose: 50.0 mg/kg/injection, schedule: Q01DX009 (ip), vehicle: saline
[2] = dose: 100.0 mg/kg/injection, schedule: Q01DX009 (ip), vehicle: saline
[3] = dose: 200.0 mg/kg/injection, schedule: Q01DX009 (ip), vehicle: saline
[4] = dose: 100.0 mg/kg/injection, schedule: Q04DX002 (ip), vehicle: saline with Tween-80
[5] = dose: 200.0 mg/kg/injection, schedule: Q04DX002 (ip), vehicle: saline with Tween-80
[6] = dose: 400.0 mg/kg/injection, schedule: Q04DX002 (ip), vehicle: saline with Tween-80
[7] = dose: 50.0 mg/kg/injection, schedule: Q01DX009 (ip), vehicle: Klucel (hydroxypropylcellulose) (HPC)
[8] = dose: 100.0 mg/kg/injection, schedule: Q01DX009 (ip), vehicle: Klucel (hydroxypropylcellulose) (HPC)
[9] = dose: 100.0 mg/kg/injection, schedule: Q04DX002 (ip), vehicle: Klucel (hydroxypropylcellulose) (HPC)
[10] = dose: 25.0 mg/kg/injection, schedule: Q01DX009 (ip), vehicle: saline
[11] = dose: 100.0 mg/kg/injection, schedule: Q01DX009 (ip), vehicle: saline with Tween-80
[12] = dose: 100.0 mg/kg/injection, schedule: Q04DX003 (ip), vehicle: saline with Tween-80
[13] = dose: 200.0 mg/kg/injection, schedule: Q04DX003 (ip), vehicle: saline with Tween-80
[14] = dose: 400.0 mg/kg/injection, schedule: Q04DX003 (ip), vehicle: saline with Tween-80
[15] = dose: 200.0 mg/kg/injection, schedule: Q01DX009 (ip), vehicle: saline with Tween-80
[16] = dose: 100.0 mg/kg/injection, schedule: Q04DX003 (ip), vehicle: saline
[17] = dose: 100.0 mg/kg/injection, schedule: Q01DX001 (ip), vehicle: Klucel (hydroxypropylcellulose) (HPC)
[18] = dose: 200.0 mg/kg/injection, schedule: Q01DX001 (ip), vehicle: Klucel (hydroxypropylcellulose) (HPC)
[19] = dose: 400.0 mg/kg/injection, schedule: Q01DX001 (ip), vehicle: Klucel (hydroxypropylcellulose) (HPC)
[20] = dose: 25.0 mg/kg/injection, schedule: Q04DX003 (ip), vehicle: saline
[21] = dose: 50.0 mg/kg/injection, schedule: Q04DX003 (ip), vehicle: saline
[22] = dose: 25.0 mg/kg/injection, schedule: Q04DX003 (ip), vehicle: Klucel (hydroxypropylcellulose) (HPC)
[23] = dose: 50.0 mg/kg/injection, schedule: Q04DX003 (ip), vehicle: Klucel (hydroxypropylcellulose) (HPC)
[24] = dose: 100.0 mg/kg/injection, schedule: Q04DX003 (ip), vehicle: Klucel (hydroxypropylcellulose) (HPC)

Measured: T/C

Cc1cc(NC(=O)NCc2ccc(N3C(N)=NC(N)=NC3(C)C)cc2)ccc1S(=O)(=O)F
inactive: [1] 102 % of control | [2] 119 % of control | [3] 107 % of control | dose: 400.0 mg/kg/injection, schedule: Q01DX009 (ip), vehicle: saline 114 % of control

CC(C)(C)[Si](C)(C)OC1CCP(C)(=S)CC1 (configuration not stated)
inactive: [4] 98 % of control | [5] 91 % of control | [6] 95 % of control

O=C(Nc1ccc(Cl)cc1)Oc1c(Cl)cc(S(=O)(=O)F)cc1Cl
inactive: dose: 25.0 mg/kg/injection, schedule: Q04DX002 (ip), vehicle: Klucel (hydroxypropylcellulose) (HPC) 94 % of control | [7] 97 % of control | dose: 50.0 mg/kg/injection, schedule: Q04DX002 (ip), vehicle: Klucel (hydroxypropylcellulose) (HPC) 91 % of control | [8] 97 % of control | [9] 99 % of control and 91 % of control

CC1CCCNC1C (configuration not stated)
inactive: [10] 95 % of control | [1] 103 % of control | [11] 102 % of control | [2] 100 % of control

NC(=Nc1ccc([N+](=O)[O-])cc1)c1ccccc1
inactive: [12] 98 % of control | [13] 102 % of control | [14] 100 % of control

O=C(CCC1c2ccccc2C(=O)c2ccccc21)c1ccccc1
inactive: dose: 50.0 mg/kg/injection, schedule: Q01DX009 (ip), vehicle: saline with Tween-80 108 % of control | [11] 97 % of control | [15] 101 % of control

COC(=O)N1C=Cc2ccccc2C1C#N (configuration not stated)
inactive: [16] 107 % of control

CC(C)=C(c1ccc(Cl)cc1)c1c(Cl)ncnc1Cl
inactive: [12] 101 % of control | [13] 102 % of control | [14] 104 % of control

CCC1(c2ccccc2)C(=O)N(C)C(=O)N(CBr)C1=O (configuration not stated)
inactive: [11] 109 % of control | [4] 92 % of control | [15] 106 % of control | [5] 98 % of control | [6] 103 % of control

CC1C(=O)OC2C1CCC1(C)C=CC(=O)C3(C)OC213 (configuration not stated)
inactive: [17] 97 % of control | [18] 94 % of control | [19] 96 % of control

Nc1nc(N)nc(C(c2ccccc2)c2ccccc2)n1
inactive: [9] 103 % of control | dose: 200.0 mg/kg/injection, schedule: Q04DX002 (ip), vehicle: Klucel (hydroxypropylcellulose) (HPC) 94 % of control | dose: 400.0 mg/kg/injection, schedule: Q04DX002 (ip), vehicle: Klucel (hydroxypropylcellulose) (HPC) 87 % of control

O=C(CCCC(=O)NNC(=O)Nc1cc(Cl)ccc1Cl)NNC(=O)Nc1cc(Cl)ccc1Cl
inactive: dose: 50.0 mg/kg/injection, schedule: Q01DX001 (ip), vehicle: saline 108 % of control | dose: 100.0 mg/kg/injection, schedule: Q01DX001 (ip), vehicle: saline 102 % of control | dose: 200.0 mg/kg/injection, schedule: Q01DX001 (ip), vehicle: saline 102 % of control | dose: 400.0 mg/kg/injection, schedule: Q01DX001 (ip), vehicle: saline 102 % of control

C[N+](C)(C)CCCCCC[N+](C)(C)C
inactive: [10] 102 % of control | [20] 108 % of control | [1] 104 % of control | [21] 97 % of control | [2] 96 % of control | [16] 94 % of control and 89 % of control

N#Cc1ccc(S(=O)(=O)Cl)cc1
inactive: [22] 95 % of control | [23] 100 % of control | [24] 93 % of control and 91 % of control

Cc1cn2ccccc2c[n+]1=O
inactive: dose: 5.0 mg/kg/injection, schedule: Q01DX009 (ip), vehicle: saline sonified 98 % of control | dose: 10.0 mg/kg/injection, schedule: Q01DX009 (ip), vehicle: saline sonified 98 % of control | dose: 20.0 mg/kg/injection, schedule: Q01DX009 (ip), vehicle: saline sonified 87 % of control

CCCCN=CC(C)(C)NCCCC
inactive: [1] 95 % of control | [2] 90 % of control | [16] 106 % of control | [3] 88 % of control | dose: 200.0 mg/kg/injection, schedule: Q04DX003 (ip), vehicle: saline 104 % of control

O=C(CCN1CC1)OCCCCOC(=O)CCN1CC1
inactive: dose: 2.5 mg/kg/injection, schedule: Q01DX009 (ip), vehicle: saline 113 % of control | dose: 5.0 mg/kg/injection, schedule: Q01DX009 (ip), vehicle: saline 110 % of control | dose: 6.6 mg/kg/injection, schedule: Q01DX009 (ip), vehicle: saline 94 % of control and 102 % of control | dose: 10.0 mg/kg/injection, schedule: Q01DX009 (ip), vehicle: saline 102 % of control | dose: 15.0 mg/kg/injection, schedule: Q01DX009 (ip), vehicle: saline 100 % of control and 107 % of control | dose: 20.0 mg/kg/injection, schedule: Q01DX009 (ip), vehicle: saline 104 % of control | dose: 20.0 mg/kg/injection, schedule: Q04DX003 (ip), vehicle: saline 115 % of control | dose: 40.0 mg/kg/injection, schedule: Q04DX003 (ip), vehicle: saline 104 % of control | dose: 80.0 mg/kg/injection, schedule: Q04DX003 (ip), vehicle: saline 91 % of control

CCCCC1CN=C(c2ccc(NC(=O)c3ccc(C(=O)Nc4ccc(C5=NCC(CCCC)CN5)cc4)c(Cl)c3)cc2)NC1 (configuration not stated)
inactive: dose: 5.0 mg/kg/injection, schedule: Q01DX015 (ip), vehicle: methylcellulose (MC) 109 % of control | dose: 22.5 mg/kg/injection, schedule: Q01DX015 (ip), vehicle: methylcellulose (MC) 123 % of control | dose: 45.0 mg/kg/injection, schedule: Q01DX015 (ip), vehicle: methylcellulose (MC) 111 % of control | dose: 62.0 mg/kg/injection, schedule: Q01DX015 (ip), vehicle: methylcellulose (MC) 109 % of control

CC(O)C1CCC2C3CCC4CC(SC(=O)c5ccccc5)CCC4(C)C3CCC12C (configuration not stated)
inactive: dose: 50.0 mg/kg/injection, schedule: Q01DX001 (sc), vehicle: steriod suspending solution 103 % of control | dose: 100.0 mg/kg/injection, schedule: Q01DX001 (sc), vehicle: steriod suspending solution 97 % of control | dose: 200.0 mg/kg/injection, schedule: Q01DX001 (sc), vehicle: steriod suspending solution 97 % of control | dose: 400.0 mg/kg/injection, schedule: Q01DX001 (sc), vehicle: steriod suspending solution 94 % of control

COC(=O)c1ccc(SSc2ccc(C(=O)OC)cc2[N+](=O)[O-])c([N+](=O)[O-])c1
inactive: [11] 103 % of control | [15] 102 % of control | dose: 400.0 mg/kg/injection, schedule: Q01DX009 (ip), vehicle: saline with Tween-80 92 % of control

COc1ccc2c3c1OC1C4(CCC5C(C2)N(CC2CC2)CCC351)OCCO4 (configuration not stated)
inactive: dose: 12.5 mg/kg/injection, schedule: Q04DX003 (ip), vehicle: Klucel (hydroxypropylcellulose) (HPC) 101 % of control | dose: 25.0 mg/kg/injection, schedule: Q01DX009 (ip), vehicle: Klucel (hydroxypropylcellulose) (HPC) 95 % of control | [22] 103 % of control | [7] 94 % of control | [23] 101 % of control | [8] 91 % of control | [24] 101 % of control

CCCCCCNS(=O)(=O)c1ccc([N+](=O)[O-])cc1
inactive: [24] 100 % of control | dose: 200.0 mg/kg/injection, schedule: Q04DX003 (ip), vehicle: Klucel (hydroxypropylcellulose) (HPC) 100 % of control | dose: 400.0 mg/kg/injection, schedule: Q04DX003 (ip), vehicle: Klucel (hydroxypropylcellulose) (HPC) 93 % of control

CCCCC(=O)N/N=C/c1cccc(OC)c1OC
inactive: dose: 100.0 mg/kg/injection, schedule: Q01DX001 (ip), vehicle: carboxymethylcellulose (CMC) 92 % of control | dose: 200.0 mg/kg/injection, schedule: Q01DX001 (ip), vehicle: carboxymethylcellulose (CMC) 92 % of control | dose: 400.0 mg/kg/injection, schedule: Q01DX001 (ip), vehicle: carboxymethylcellulose (CMC) 101 % of control

O=CC1OC(c2ccccc2)OC2COC(c3ccccc3)OC12 (configuration not stated)
inactive: [17] 103 % of control | [18] 97 % of control | [19] 93 % of control

CCC(N)Cc1ccc2c(c1)OCO2 (configuration not stated)
inactive: [20] 98 % of control | [21] 101 % of control | [16] 100 % of control
